The source of these data is patent US10544149B2, “Bicyclic alkyne derivatives and uses thereof” (Agency for Science, Technology and Research, priority 2013, dated 2020).

One test deals with MNK1 (Homo sapiens, UniProt Q9BUB5). The test can be described thus: MNK1 enzymatic assay. The format is biochemical.
Test [1] relates to eIF4e phosphorylation in Hela cell line. The test can be described thus: eIF4e phosphorylation inhibition in Hela cell line. The format is cell-based. The note with it: Homo sapiens, cellular.
For the next test, the target named is MNK2 (Homo sapiens, UniProt Q9HBH9). The test can be described thus: MNK2 enzymatic assay. The format is biochemical.

As a reminder, the IC50 is the midpoint of a concentration-inhibition curve. A low value points to higher potency.

MNK2, sequence (Q9HBH9 whole entry): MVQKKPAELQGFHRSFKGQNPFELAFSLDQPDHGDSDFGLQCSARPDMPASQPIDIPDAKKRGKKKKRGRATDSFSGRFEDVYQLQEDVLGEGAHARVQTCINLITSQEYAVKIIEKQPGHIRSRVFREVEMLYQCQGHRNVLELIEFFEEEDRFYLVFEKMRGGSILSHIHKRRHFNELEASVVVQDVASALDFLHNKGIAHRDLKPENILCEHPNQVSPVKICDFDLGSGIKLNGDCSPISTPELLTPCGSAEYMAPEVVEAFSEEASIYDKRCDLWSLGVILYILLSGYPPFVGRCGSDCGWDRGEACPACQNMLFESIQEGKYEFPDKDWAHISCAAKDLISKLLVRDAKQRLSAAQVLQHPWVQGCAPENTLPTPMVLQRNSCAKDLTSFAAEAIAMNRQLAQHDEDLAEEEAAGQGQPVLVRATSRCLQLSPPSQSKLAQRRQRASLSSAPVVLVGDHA
MNK1, sequence (Q9BUB5 whole entry): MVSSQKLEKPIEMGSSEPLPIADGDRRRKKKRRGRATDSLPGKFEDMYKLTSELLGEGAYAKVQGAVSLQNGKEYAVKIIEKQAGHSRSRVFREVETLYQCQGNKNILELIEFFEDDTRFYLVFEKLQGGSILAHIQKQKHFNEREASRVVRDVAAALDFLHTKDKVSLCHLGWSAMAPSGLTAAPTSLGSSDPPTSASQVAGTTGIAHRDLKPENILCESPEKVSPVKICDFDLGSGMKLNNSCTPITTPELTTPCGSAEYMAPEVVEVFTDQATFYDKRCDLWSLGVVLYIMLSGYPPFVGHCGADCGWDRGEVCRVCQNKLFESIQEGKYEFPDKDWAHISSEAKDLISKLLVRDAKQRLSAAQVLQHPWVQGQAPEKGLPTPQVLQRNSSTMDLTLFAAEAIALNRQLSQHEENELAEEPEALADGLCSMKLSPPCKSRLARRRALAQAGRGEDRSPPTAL

For `Cc1ccccc1C#Cc1cnc2ccc(-c3ccc(C(=O)N4CCN(C)CC4)cc3)nn12` [Example 001, (4-methylpiperazin-1-yl)(4-(3-(o-tolylethynyl)imidazo[1,2-b]pyridazin-6-yl)phenyl)methanone], the figures for the IC50 (against MNK1; in test [1]; against MNK2) were less than 0.5 µM, less than 5 µM and less than 0.5 µM, respectively.
On to `CN1CCN(C(=O)c2ccc(-c3ccc4ncc(C#Cc5ccccc5)n4n3)cc2)CC1` [Example 002, (4-methylpiperazin-1-yl) (4-(3-(phenylethynyl)imidazo[1,2-b]pyridazin-6-yl)phenyl)methanone], for which the IC50 against MNK1 was less than 0.5 µM; in test [1], less than 5 µM; on MNK2 it was less than 0.5 µM.
As to `CN1CCN(C(=O)c2ccc(-c3ccc4ncc(C#Cc5ccncc5)n4n3)cc2)CC1` [Example 005, (4-methylpiperazin-1-yl) (4-(3-(pyridin-4-ylethynyl)imidazo[1,2-b]pyridazin-6-yl)phenyl)methanone], the results for the IC50 (against MNK1; in test [1]; against MNK2) were less than 0.5 µM, less than 5 µM and less than 0.5 µM, respectively.
Regarding `CC(=O)Nc1cccc(C#Cc2cnc3ccc(-c4ccc(C(=O)N5CCN(C)CC5)cc4)nn23)c1` [Example 008, N-(3-((6-(4-(4-methylpiperazine-1-carbonyl)phenyl)imidazo[1,2-b]pyridazin-3-yl)ethynyl)phenyl)acetamide], the IC50 was less than 0.5 µM against MNK1, less than 5 µM in test [1] and less than 0.5 µM against MNK2.
In the case of `O=C(c1ccc(-c2ccc3ncc(C#Cc4cccnc4)n3n2)cc1)N1CCOCC1` [Example 010, morpholino(4-(3-(pyridin-3-ylethynyl)imidazo[1,2-b]pyridazin-6-yl)phenyl)methanone], the concentration for half-maximal inhibition (IC50) was less than 0.5 µM against MNK1, less than 5 µM in test [1] and less than 0.5 µM at MNK2.
As for `CS(=O)(=O)Nc1cccc(C#Cc2cnc3ccc(-c4ccc(C(=O)N5CCOCC5)cc4)nn23)c1` [Example 011, N-(3-((6-(4-(morpholine-4-carbonyl)phenyl)imidazo[1,2-b]pyridazin-3-yl)ethynyl)phenyl)methane sulfonamide], the IC50 was less than 0.5 µM against MNK1, less than 5 µM in test [1] and less than 0.5 µM against MNK2.
As for `CC(=O)Nc1cccc(C#Cc2cnc3ccc(-c4ccc(C(=O)N5CCOCC5)cc4)nn23)c1` [Example 013, N-(3-((6-(4-(morpholine-4-carbonyl)phenyl)imidazo[1,2-b]pyridazin-3-yl)ethynyl)phenyl)acetamide], the IC50 is less than 0.5 µM at MNK1, less than 5 µM in test [1] and less than 0.5 µM on MNK2.
For the compound `O=C(c1ccc(-c2ccc3ncc(C#Cc4ccnc5[nH]ncc45)n3n2)cc1)N1CCOCC1` [Example 016, (4-(3-((1H-pyrazolo[3,4-b]pyridin-4-yl)ethynyl)imidazo[1,2-b]pyridazin-6-yl)phenyl) (morpholino)methanone], the IC50 on MNK1 was less than 0.5 µM; in test [1] it was less than 5 µM; against MNK2, less than 0.5 µM.
For the compound `Nc1cc(C#Cc2cnc3ccc(-c4ccc(C(=O)N5CCOCC5)cc4)nn23)c2cc[nH]c2n1` [Example 017, (4-(3-((6-amino-1H-pyrrolo[2,3-b]pyridin-4-yl)ethynyl)imidazo[1,2-b]pyridazin-6-yl)phenyl)(morpholino)methanone], the IC50 at MNK1 is less than 0.5 µM; in test [1], less than 5 µM; against MNK2, less than 0.5 µM.
As for `COc1cc(C#Cc2cnc3ccc(-c4ccc(C(=O)N5CCOCC5)cc4)nn23)ccn1` [Example 019, (4-(3-((2-methoxypyridin-4-yl)ethynyl)imidazo[1,2-b]pyridazin-6-yl)phenyl) (morpholino)methanone], the half-maximal inhibitory concentration (IC50) was less than 0.5 µM at MNK1, less than 5 µM in test [1] and less than 0.5 µM at MNK2.
As for `O=C(c1ccc(-c2ccc3ncc(C#Cc4cnc5cc[nH]c5c4)n3n2)cc1)N1CCOCC1` [Example 020, (4-(3-((1H-pyrrolo[3,2-b]pyridin-6-yl)ethynyl)imidazo[1,2-b]pyridazin-6-yl)phenyl) (morpholino)methanone], the figures for the concentration for half-maximal inhibition (IC50) (on MNK1; in test [1]; against MNK2) were less than 0.5 µM, less than 5 µM and less than 0.5 µM, respectively.
Consider `Cc1ccncc1C#Cc1cnc2ccc(-c3ccc(C(=O)N4CCOCC4)cc3)nn12` [Example 022], for which the IC50 against MNK1 is less than 0.5 µM; in test [1], less than 5 µM; at MNK2, less than 0.5 µM.
Take `O=C(c1ccc(-c2ccc3ncc(C#Cc4cnc5[nH]ccc5c4)n3n2)cc1)N1CCOCC1` [Example 023, (4-(3-((1H-pyrrolo[2,3-b]pyridin-5-yl)ethynyl)imidazo[1,2-b]pyridazin-6-yl)phenyl) (morpholino)methanone]: the IC50 on MNK1 was less than 0.5 µM; in test [1], less than 5 µM; against MNK2 it was less than 0.5 µM.
On to `O=C(c1ccc(-c2ccc3ncc(C#Cc4c[nH]c5ncccc45)n3n2)cc1)N1CCOCC1` [Example 024, (4-(3-((1H-pyrrolo[2,3-b]pyridin-3-yl)ethynyl)imidazo[1,2-b]pyridazin-6-yl)phenyl) (morpholino)methanone], for which the concentration for half-maximal inhibition (IC50) is less than 0.5 µM against MNK1, less than 5 µM in test [1] and less than 0.5 µM at MNK2.
`O=C(c1ccc(-c2ccc3ncc(C#Cc4ccc5[nH]cnc5c4)n3n2)cc1)N1CCOCC1` [Example 027, (4-(3-((1H-benzo[d]imidazol-5-yl)ethynyl)imidazo[1,2-b]pyridazin-6-yl)phenyl)(morpholino)methanone]: the 50% inhibitory concentration (IC50) was less than 0.5 µM on MNK1, less than 5 µM in test [1] and less than 0.5 µM at MNK2.
As for `O=C(c1ccc(-c2ccc3ncc(C#Cc4cn[nH]c4)n3n2)cc1)N1CCOCC1` [Example 028, (4-(3-((1H-pyrazol-4-yl)ethynyl)imidazo[1,2-b]pyridazin-6-yl)phenyl)(morpholino)methanone], the concentration for half-maximal inhibition (IC50) on MNK1 is less than 0.5 µM; in test [1] it was less than 5 µM; against MNK2, less than 0.5 µM.
In the case of `O=C(c1ccc(-c2ccc3ncc(C#Cc4c(C(F)(F)F)cnc5[nH]ccc45)n3n2)cc1)N1CCOCC1` [Example 031, morpholino(4-(3-((5-(trifluoromethyl)-1H-pyrrolo[2,3-b]pyridin-4-yl)ethynyl)imidazo[1,2-b]pyridazin-6-yl)phenyl)methanone], the figures for the 50% inhibitory concentration (IC50) (against MNK1; in test [1]; against MNK2) were less than 0.5 µM, less than 5 µM and less than 0.5 µM, respectively.
Regarding `O=C(c1ccc(-c2ccc3ncc(C#Cc4ccncc4)n3n2)cc1)N1CCOCC1` [Example 032], the half-inhibitory concentration (IC50) against MNK1 was less than 0.5 µM; in test [1], less than 5 µM; at MNK2, less than 0.5 µM.
On to `O=C(c1ccc(-c2ccc3ncc(C#Cc4ccnc5[nH]ccc45)n3n2)cc1)N1CCOCC1` [Example 033, (4-(3-((1H-pyrrolo[2,3-b]pyridin-4-yl)ethynyl)imidazo[1,2-b]pyridazin-6-yl)phenyl) (morpholino)methanone], for which the half-inhibitory concentration (IC50) against MNK1 is less than 0.5 µM; in test [1], less than 5 µM; at MNK2, less than 0.5 µM.
As for `Nc1cc(C#Cc2cnc3ccc(-c4ccc(C(=O)N5CCOCC5)cc4)nn23)ccn1` [Example 034, (4-(3-((2-aminopyridin-4-yl)ethynyl)imidazo[1,2-b]pyridazin-6-yl)phenyl) (morpholino)methanone], the figures for the half-maximal inhibitory concentration (IC50) (at MNK1; in test [1]; against MNK2) were less than 0.5 µM, less than 5 µM and less than 0.5 µM, respectively.
Take `Cn1ccc2c(C#Cc3cnc4ccc(-c5ccc(C(=O)N6CCOCC6)cc5)nn34)ccnc21` [Example 035, (4-(3-((1-methyl-1H-pyrrolo[2,3-b]pyridin-4-yl)ethynyl)imidazo[1,2-b]pyridazin-6-yl)phenyl)(morpholino) methanone]: the IC50 is less than 0.5 µM at MNK1, less than 5 µM in test [1] and less than 0.5 µM against MNK2.
As to `CC(=O)Nc1cc(C#Cc2cnc3ccc(-c4ccc(C(=O)N5CCOCC5)cc4)nn23)ccn1` [Example 037, N-(4-((6-(4-(morpholine-4-carbonyl)phenyl)imidazo[1,2-b]pyridazin-3-yl)ethynyl)pyridin-2-yl)acetamide], the 50% inhibitory concentration (IC50) against MNK1 is less than 0.5 µM; in test [1], less than 5 µM; at MNK2 it was less than 0.5 µM.
Consider `O=C(c1ccc(-c2ccc3ncc(C#Cc4ccc(O)nc4)n3n2)cc1)N1CCOCC1` [Example 040, (4-(3-((6-hydroxypyridin-3-yl)ethynyl)imidazo[1,2-b]pyridazin-6-yl)phenyl) (morpholino)methanone], for which the IC50 against MNK1 is less than 0.5 µM; in test [1], less than 5 µM; on MNK2, less than 0.5 µM.
Turning to `O=C(CCl)Nc1cc(C#Cc2cnc3ccc(-c4ccc(C(=O)N5CCOCC5)cc4)nn23)ccn1` [Example 043], the values for the half-maximal inhibitory concentration (IC50) (against MNK1; in test [1]; against MNK2) were less than 0.5 µM, less than 5 µM and less than 0.5 µM, respectively.
For `CNCC(=O)Nc1cc(C#Cc2cnc3ccc(-c4ccc(C(=O)N5CCOCC5)cc4)nn23)ccn1` [Example 044, 2-(methylamino)-N-(4-((6-(4-(morpholine-4-carbonyl)phenyl)imidazo[1,2-b]pyridazin-3-yl)ethynyl)pyridin-2-yl)acetamide], the 50% inhibitory concentration (IC50) at MNK1 is less than 0.5 µM; in test [1], less than 5 µM; against MNK2, less than 0.5 µM.
Regarding `O=C(c1ccc(-c2ccc3ncc(C#Cc4ccnc5[nH]ccc45)n3n2)cc1)N1CCNCC1` [Example 045, (4-(3-((1H-pyrrolo[2,3-b]pyridin-4-yl)ethynyl)imidazo[1,2-b]pyridazin-6-yl)phenyl)(piperazin-1-yl) methanone], the figures for the IC50 (against MNK1; in test [1]; against MNK2) were less than 0.5 µM, less than 5 µM and less than 0.5 µM, respectively.
On to `Nc1cc(C#Cc2cnc3ccc(-c4ccc(C(=O)N5CCNCC5)cc4)nn23)ccn1` [Example 046, (4-(3-((2-aminopyridin-4-yl)ethynyl)imidazo[1,2-b]pyridazin-6-yl)phenyl)(piperazin-1-yl)methanone], for which the results for the IC50 (on MNK1; in test [1]; against MNK2) were less than 0.5 µM, less than 5 µM and less than 0.5 µM, respectively.
Turning to `Cc1ncccc1Nc1cc(C#Cc2cnc3ccc(-c4ccc(C(=O)N5CCOCC5)cc4)nn23)ccn1` [Example 047, (4-(3-((2-((2-methylpyridin-3-yl)amino)pyridin-4-yl)ethynyl)imidazo[1,2-b]pyridazin-6-yl)phenyl) (morpholino)methanone], the values for the IC50 (at MNK1; in test [1]; on MNK2) were less than 0.5 µM, less than 5 µM and less than 0.5 µM, respectively.
